Measured values as given in the NIST ThermoML archive (doi:10.1016/j.tca.2010.09.004).

Test: xn = mol fraction of the nth substance listed
Settings: 101 kPa, Liquid; for speed of sound: Sing-around technique in a fixed-path interferometer; for mass density: Vibrating tube method

CCCNCCC [dipropylamine] + CCC(C)=O
Settings	mass density [kg/m3]	speed of sound [m/s]
293.15 K, x2 = 0.0539	740.359	1208
293.15 K, x2 = 0.1021	742.443	1207.3
293.15 K, x2 = 0.1497	744.612	1206.7
293.15 K, x2 = 0.1982	746.936	1206.2
293.15 K, x2 = 0.2459	749.311	1205.7
293.15 K, x2 = 0.2983	752.034	1205.2
293.15 K, x2 = 0.3504	754.874	1204.9
293.15 K, x2 = 0.4012	757.757	1204.6
293.15 K, x2 = 0.4495	760.619	1204.3
293.15 K, x2 = 0.5068	764.2	1204.3
293.15 K, x2 = 0.5551	767.388	1204.4
293.15 K, x2 = 0.6014	770.563	1204.5
293.15 K, x2 = 0.6568	774.567	1204.8
293.15 K, x2 = 0.6968	777.603	1205.1
293.15 K, x2 = 0.7555	782.275	1205.9
293.15 K, x2 = 0.8009	786.111	1206.6
293.15 K, x2 = 0.8573	791.158	1207.8
293.15 K, x2 = 0.901	795.276	1208.9
293.15 K, x2 = 0.9479	799.908	1210.3
298.15 K, x2 = 0.0592	736.042	1186.6
298.15 K, x2 = 0.1027	737.924	1185.9
298.15 K, x2 = 0.1509	740.108	1185.2
298.15 K, x2 = 0.2001	742.441	1184.7
298.15 K, x2 = 0.2446	744.623	1184.2
298.15 K, x2 = 0.2958	747.263	1183.8
298.15 K, x2 = 0.3545	750.41	1183.3
298.15 K, x2 = 0.4003	753	1183.2
298.15 K, x2 = 0.4625	756.591	1182.5
298.15 K, x2 = 0.5006	759.04	1182.9
298.15 K, x2 = 0.5539	762.376	1182.7
298.15 K, x2 = 0.5992	765.587	1183.2
298.15 K, x2 = 0.6474	769.011	1183.4
298.15 K, x2 = 0.6987	772.61	1183.5
298.15 K, x2 = 0.7531	777.151	1184.6
298.15 K, x2 = 0.8048	781.469	1185.4
298.15 K, x2 = 0.8557	785.991	1186.6
298.15 K, x2 = 0.9041	790.463	1188
298.15 K, x2 = 0.9471	794.714	1189.1
303.15 K, x2 = 0.0658	731.678	1165.9
303.15 K, x2 = 0.0988	733.107	1165.4
303.15 K, x2 = 0.1106	733.626	1165.2
303.15 K, x2 = 0.2146	738.432	1164.1
303.15 K, x2 = 0.2595	740.626	1163.5
303.15 K, x2 = 0.3098	743.197	1163.1
303.15 K, x2 = 0.363	746.053	1162.8
303.15 K, x2 = 0.4131	748.859	1162.5
303.15 K, x2 = 0.457	751.472	1162.4
303.15 K, x2 = 0.5154	755.069	1162.3
303.15 K, x2 = 0.5554	757.601	1162.4
303.15 K, x2 = 0.6081	761.161	1162.6
303.15 K, x2 = 0.6657	765.248	1163
303.15 K, x2 = 0.7041	768.129	1163.5
303.15 K, x2 = 0.7517	771.855	1164
303.15 K, x2 = 0.8032	776.094	1164.8
303.15 K, x2 = 0.8513	780.312	1166.1
303.15 K, x2 = 0.8958	784.355	1167
303.15 K, x2 = 0.9448	789.085	1168.6

CCN(CC)CC [triethylamine] + CCC(C)=O
Settings	mass density [kg/m3]	speed of sound [m/s]
293.15 K, x2 = 0.0684	730.666	1134.5
293.15 K, x2 = 0.1169	733.08	1136
293.15 K, x2 = 0.1627	735.417	1138
293.15 K, x2 = 0.2218	738.705	1140.6
293.15 K, x2 = 0.2686	741.43	1143
293.15 K, x2 = 0.3141	744.214	1145.5
293.15 K, x2 = 0.3549	746.818	1147.9
293.15 K, x2 = 0.4154	750.867	1151.7
293.15 K, x2 = 0.4636	754.264	1155
293.15 K, x2 = 0.5054	757.343	1158.2
293.15 K, x2 = 0.5572	761.332	1162.3
293.15 K, x2 = 0.61	765.576	1166.7
293.15 K, x2 = 0.6519	769.122	1170.6
293.15 K, x2 = 0.7051	773.808	1175.7
293.15 K, x2 = 0.7603	778.962	1181.4
293.15 K, x2 = 0.8057	783.447	1186.5
293.15 K, x2 = 0.8586	788.929	1192.8
293.15 K, x2 = 0.9019	793.679	1198.3
293.15 K, x2 = 0.9451	798.586	1204.1
298.15 K, x2 = 0.0709	725.999	1112.7
298.15 K, x2 = 0.1149	728.152	1114.2
298.15 K, x2 = 0.158	730.378	1115.9
298.15 K, x2 = 0.2181	733.668	1118.5
298.15 K, x2 = 0.261	736.151	1120.7
298.15 K, x2 = 0.3203	739.738	1123.9
298.15 K, x2 = 0.3605	742.292	1126.3
298.15 K, x2 = 0.4159	745.987	1129.9
298.15 K, x2 = 0.4607	749.113	1133
298.15 K, x2 = 0.5106	752.756	1136.7
298.15 K, x2 = 0.5701	757.323	1141.5
298.15 K, x2 = 0.6039	760.048	1144.5
298.15 K, x2 = 0.66	764.735	1149.5
298.15 K, x2 = 0.7122	769.362	1154.6
298.15 K, x2 = 0.7604	773.883	1159.8
298.15 K, x2 = 0.8023	777.983	1164.4
298.15 K, x2 = 0.8437	782.252	1169.6
298.15 K, x2 = 0.8921	787.444	1175.7
298.15 K, x2 = 0.9456	793.453	1182.8
303.15 K, x2 = 0.0686	721.221	1092.2
303.15 K, x2 = 0.1149	723.47	1093.7
303.15 K, x2 = 0.1643	726.011	1095.6
303.15 K, x2 = 0.2101	728.487	1097.6
303.15 K, x2 = 0.2639	731.565	1100.3
303.15 K, x2 = 0.3102	734.326	1102.7
303.15 K, x2 = 0.3502	736.816	1105.1
303.15 K, x2 = 0.3869	739.189	1107.4
303.15 K, x2 = 0.45	743.482	1111.7
303.15 K, x2 = 0.5081	747.667	1116
303.15 K, x2 = 0.5652	752.023	1120.6
303.15 K, x2 = 0.6051	755.192	1124
303.15 K, x2 = 0.6561	759.446	1128.7
303.15 K, x2 = 0.7087	764.061	1134
303.15 K, x2 = 0.763	769.188	1140
303.15 K, x2 = 0.7945	772.2	1143.5
303.15 K, x2 = 0.8542	778.238	1150.5
303.15 K, x2 = 0.8987	783.012	1156.3
303.15 K, x2 = 0.95	788.818	1163.4
